Measurements published in the NIST ThermoML archive (doi:10.1016/j.jct.2012.07.024).
Numbers after ± are expanded uncertainties.

Experiments:
[1] = 101.33 kPa, Liquid; for viscosity: Concentric cylinders viscometry; for mass density: Vibrating tube method
[2] = refractive index (Na D-line) (dimensionless); settings: 101.33 kPa, Liquid, Standard Abbe refractometry

Row | SMILES | viscosity ([1]; 288.15 K) [mPa·s] | mass density ([1]; 288.15 K) [kg/m3] | viscosity ([1]; 293.15 K) [mPa·s] | mass density ([1]; 293.15 K) [kg/m3] | viscosity ([1]; 298.15 K) [mPa·s] | mass density ([1]; 298.15 K) [kg/m3] | viscosity ([1]; 303.15 K) [mPa·s] | mass density ([1]; 303.15 K) [kg/m3] | viscosity ([1]; 308.15 K) [mPa·s] | mass density ([1]; 308.15 K) [kg/m3] | viscosity ([1]; 313.15 K) [mPa·s] | mass density ([1]; 313.15 K) [kg/m3] | viscosity ([1]; 318.15 K) [mPa·s] | mass density ([1]; 318.15 K) [kg/m3] | viscosity ([1]; 323.15 K) [mPa·s] | mass density ([1]; 323.15 K) [kg/m3] | viscosity ([1]; 328.15 K) [mPa·s] | mass density ([1]; 328.15 K) [kg/m3] | viscosity ([1]; 333.15 K) [mPa·s] | mass density ([1]; 333.15 K) [kg/m3] | other results
1 | CC(O)CO (stereo not given) [1,2-propanediol] | 82.86 ± 1.8 | 1039.87 ± 0.14 | 59.84 ± 1.2 | 1036.25 ± 0.14 | 44.19 ± 0.9 | 1032.59 ± 0.13 | 33.29 ± 0.68 | 1028.88 ± 0.13 | 25.54 ± 0.52 | 1025.14 ± 0.13 | 19.92 ± 0.41 | 1021.35 ± 0.13 | 15.79 ± 0.32 | 1017.52 ± 0.13 | 12.76 ± 0.26 | 1013.66 ± 0.13 | 10.35 ± 0.21 | 1009.75 ± 0.13 | 8.586 ± 0.18 | 1005.79 ± 0.13 | refractive index ([2]; 288.15 K): 1.43425 ± 0.00033; refractive index ([2]; 293.15 K): 1.4326 ± 0.00033; refractive index ([2]; 298.15 K): 1.43093 ± 0.00033; refractive index ([2]; 303.15 K): 1.42927 ± 0.00033; refractive index ([2]; 308.15 K): 1.4276 ± 0.00033; refractive index ([2]; 313.15 K): 1.4259 ± 0.00033; refractive index ([2]; 318.15 K): 1.42422 ± 0.00033; refractive index ([2]; 323.15 K): 1.42252 ± 0.00033; refractive index ([2]; 328.15 K): 1.42078 ± 0.00033; refractive index ([2]; 333.15 K): 1.41909 ± 0.00033
2 | OCCCO [propan-1,3-diol] | 68.06 ± 1.5 | 1055.96 ± 0.95 | 52.75 ± 1.2 | 1052.87 ± 0.95 | 41.97 ± 0.95 | 1049.76 ± 0.94 | 33.56 ± 0.76 | 1046.64 ± 0.93 | 27.15 ± 0.61 | 1043.5 ± 0.93 | 22.22 ± 0.5 | 1040.35 ± 0.92 | 18.35 ± 0.41 | 1037.18 ± 0.91 | 15.29 ± 0.34 | 1033.98 ± 0.91 | 12.84 ± 0.29 | 1030.77 ± 0.9 | 10.96 ± 0.25 | 1027.53 ± 0.89 | refractive index ([2]; 288.15 K): 1.44073 ± 0.00051; refractive index ([2]; 293.15 K): 1.43932 ± 0.00051; refractive index ([2]; 298.15 K): 1.43792 ± 0.00051; refractive index ([2]; 303.15 K): 1.43654 ± 0.00051; refractive index ([2]; 308.15 K): 1.43513 ± 0.00051; refractive index ([2]; 313.15 K): 1.43375 ± 0.00051; refractive index ([2]; 318.15 K): 1.43232 ± 0.00051; refractive index ([2]; 323.15 K): 1.43087 ± 0.00051; refractive index ([2]; 328.15 K): 1.42945 ± 0.00051; refractive index ([2]; 333.15 K): 1.42803 ± 0.00051
